# Measured values: patent US20110021505A1, “Use of sulfonyl-substituted 2-sulfonylaminobenzoic acid N-phenylamides in the treatment of pain” (SANOFI-AVENTIS DEUTSCHLAND GMBH, priority 2007, published 2011)
# System: tactile allodynia induced in a hind paw by surgical lesion of the sciatic nerve
# Assay: Anti-allodynic effect in the spared nerve injury (SNI) model of neuropathic pain in mice after oral administration
# Format: in vivo, male C57B6 mice
# Settings: for Mean PWT (paw withdrawal threshold) ± SEM / DeltaAUC1 h-6 h of PWL (mean ± SEM): N=4; for Statistical evaluation vs. control (DeltaAUC1 h-6 h): 1-way ANOVA & Dunnett; for DeltaAUC1 h-6 h of PWL (mean ± SEM): AUC contralateral minus ipsilateral paws, 1 h to 6 h after administration
# Description: In this in vivo mouse model of chronic neuropathic pain the effect on tactile allodynia, a painful sensation after a normally not painful mechanical stimulus, which had been induced in a hind paw by surgical lesion of the sciatic nerve, was determined by measuring the paw withdrawal threshold (PWT), i.e. the exerted force (expressed in grams) at which the mouse withdrew its hind paw.
# Tactile allodynia was determined at both hind paws, i.e. ipsilateral and contralateral to the lesion if determined subsequent to surgery, with the automatic von Frey test in which the plantar skin of the hind paws was exposed to a pressure stimulus of increasing intensity up to 5 grams using a dump needle stick. The force in grams at which the animal responded withdrawal of the hind paw (paw withdrawal threshold, PWT), was used as a measure of tactile allodynia.
# Two test groups and one control group of animals were used each consisting of four male C57B6 mice. In all groups, baseline PWT values (BL) were determined before surgery. For induction of neuropathic pain then, under general anesthesia, in all groups the two major branches of the sciatic nerve were ligated and transected, with the sural nerve left intact (spared nerve injury, SNI). In this model of neuropathic pain, tactile allodynia developed completely within two days after nerve transection in the hind paw ipsilateral to the lesion and remained stable in the control group over the complete observation period of the experiment.
# 7 days after surgery, immediately before administration of the test compound, i.e. at the time 0 h, in all groups PWT values were determined for the injured ipsilateral hind paw and the non-injured contralateral hind paw. Then either the test compound or vehicle was administered to the animals orally by gavage. In the test groups, mice received 100 μl/10 g body weight of a suspension of the test compound in vehicle MC/T80 comprising 0.3 mg/ml or 3 mg/ml (prepared as described in pharmaceutical example A) for attaining a dosage of 3 mg/kg body weight and 30 mg/kg body weight, respectively. In the control group, mice analogously received 100 μl/10 g body weight of vehicle MC/T80. 1 h, 2 h, 4 h and 6 h after administration, PWT values were determined.
# The given PWT values (in grams) are the mean±SEM (standard error of the mean) of the PWT measurements performed with the ipsilateral hind paw and the contralateral hind paw, respectively, of each animal of the indicated group (N (number of animals)=4) at the time points 0 h (i.e. before administration of test compound or vehicle) and 1 h, 2 h, 4 h and 6 h after administration of test compound or vehicle, as well as the baseline PWT values (BL) determined before surgery.
# For the statistical analysis, PWT values were used in two ways, first with a 2-way ANOVA test based on the PWT values and second with a 1-way ANOVA test based on area under the curve (AUC) values for the time period of 6 h after application of the test compound or vehicle. A repeated measures 2-way ANOVA test (factor treatment and repeated measures factor time) was performed on PWT measurements. In case the interaction (treatment×time) was statistically significant, a Winer complementary analysis was done to investigate the effect of treatment for each time point. A Dunnett's test was used to study the potential differences between the control group and the test groups.
# As a quantitative measure of the efficacy of a test compound over an extended time period, the area under the curve (AUC) of the individual PWT values for the time period from 1 h to 6 h after administration of test compound or vehicle (AUC1 h-6 h) was determined for the ipsilateral paws of each group and the obtained value subtracted from the value determined for the contralateral paws of the same group to give DeItaAUC1 h-6 h values for each group. […]
compound,measurement,setting,value
"O=C(Nc1ccc(S(=O)(=O)N2CCOCC2)cc1)c1cc(Cl)ccc1NS(=O)(=O)c1ccc(Cl)s1.[Na] [Example 94, 5-Chloro-2-(5-chloro-thiophene-2-sulfonylamino)-N-(4-(morpholine-4-sulfonyl)-phenyl)-benzamide sodium salt]",Mean PWT (paw withdrawal threshold) ± SEM,"3 mg/kg body weight group, BL baseline before surgery",4.75 grams
same,Mean PWT (paw withdrawal threshold) ± SEM,"3 mg/kg body weight group, injured ipsilateral paw, 0 h (before administration)",1.58 grams
same,Mean PWT (paw withdrawal threshold) ± SEM,"3 mg/kg body weight group, non-injured contralateral paw, 0 h (before administration)",4.84 ± 0.11 grams
same,Statistical evaluation vs. control (DeltaAUC1 h-6 h),3 mg/kg body weight oral,"*** (significant, p < 0.0001 (ANOVA & Dunnett))"
same,DeltaAUC1 h-6 h of PWL (mean ± SEM),3 mg/kg body weight oral,4.60 ± 1.20
same,"Anti-allodynic effect on PWT vs. control (2-way ANOVA, Dunnett)","3 mg/kg body weight oral, from 1 h to 4 h after administration",Statistically significant ant-allodynic effects
same,Mean PWT (paw withdrawal threshold) ± SEM,"3 mg/kg body weight oral, injured ipsilateral paw, 1 h after administration",2.96 grams
same,Mean PWT (paw withdrawal threshold) ± SEM,"3 mg/kg body weight oral, injured ipsilateral paw, 2 h after administration",4.64 ± 0.11 grams
same,Mean PWT (paw withdrawal threshold) ± SEM,"3 mg/kg body weight oral, injured ipsilateral paw, 4 h after administration",4.12 ± 0.17 grams
same,Mean PWT (paw withdrawal threshold) ± SEM,"3 mg/kg body weight oral, injured ipsilateral paw, 6 h after administration",2.50 ± 0.40 grams
same,Mean PWT (paw withdrawal threshold) ± SEM,"3 mg/kg body weight oral, non-injured contralateral paw, 1 h after administration",4.66 ± 0.14 grams
same,Mean PWT (paw withdrawal threshold) ± SEM,"3 mg/kg body weight oral, non-injured contralateral paw, 2 h after administration",4.95 ± 0.02 grams
same,Mean PWT (paw withdrawal threshold) ± SEM,"3 mg/kg body weight oral, non-injured contralateral paw, 4 h after administration",4.61 ± 0.13 grams
same,Mean PWT (paw withdrawal threshold) ± SEM,"3 mg/kg body weight oral, non-injured contralateral paw, 6 h after administration",4.82 grams
same,Mean PWT (paw withdrawal threshold) ± SEM,"30 mg/kg body weight group, BL baseline before surgery",4.70 grams
same,Mean PWT (paw withdrawal threshold) ± SEM,"30 mg/kg body weight group, injured ipsilateral paw, 0 h (before administration)",1.91 grams
same,Mean PWT (paw withdrawal threshold) ± SEM,"30 mg/kg body weight group, non-injured contralateral paw, 0 h (before administration)",4.69 ± 0.23 grams
same,Statistical evaluation vs. control (DeltaAUC1 h-6 h),30 mg/kg body weight oral,"*** (significant, p < 0.0001 (ANOVA & Dunnett))"
same,DeltaAUC1 h-6 h of PWL (mean ± SEM),30 mg/kg body weight oral,1.52 ± 0.94
same,"Anti-allodynic effect on PWT vs. control (2-way ANOVA, Dunnett)","30 mg/kg body weight oral, from 1 h to 6 h after administration",Statistically significant ant-allodynic effects
same,Mean PWT (paw withdrawal threshold) ± SEM,"30 mg/kg body weight oral, injured ipsilateral paw, 1 h after administration",3.70 grams
same,Mean PWT (paw withdrawal threshold) ± SEM,"30 mg/kg body weight oral, injured ipsilateral paw, 2 h after administration",4.66 ± 0.10 grams
same,Mean PWT (paw withdrawal threshold) ± SEM,"30 mg/kg body weight oral, injured ipsilateral paw, 4 h after administration",4.51 ± 0.17 grams
same,Mean PWT (paw withdrawal threshold) ± SEM,"30 mg/kg body weight oral, injured ipsilateral paw, 6 h after administration",4.24 ± 0.08 grams
same,Mean PWT (paw withdrawal threshold) ± SEM,"30 mg/kg body weight oral, non-injured contralateral paw, 1 h after administration",4.82 ± 0.10 grams
same,Mean PWT (paw withdrawal threshold) ± SEM,"30 mg/kg body weight oral, non-injured contralateral paw, 2 h after administration",4.84 ± 0.10 grams
same,Mean PWT (paw withdrawal threshold) ± SEM,"30 mg/kg body weight oral, non-injured contralateral paw, 4 h after administration",4.70 ± 0.19 grams
same,Mean PWT (paw withdrawal threshold) ± SEM,"30 mg/kg body weight oral, non-injured contralateral paw, 6 h after administration",4.55 grams
same,Improvement of DeltaAUC1 h-6 h over vehicle control (1-way ANOVA),"both dosages, 3 mg/kg and 30 mg/kg body weight oral",significant improvement over the control group
